Key:
[1] = system: CMV promoter in 293-EBNA cells; assay: AP reporter gene expression from CMV promoter, 293-EBNA cells stably transfected with pCMV.AP; type: cell-based, human cytomegalovirus; human cells
Procedure, shortened: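 293-EBNA cells carrying episomal pCMV.AP, expressing secreted placental alkaline phosphatase from the CMV enhancer/promoter, treated with various compound concentrations. Reporter expression read as change in A405 of conditioned medium with substrate such as ortho-nitrophenol phosphate.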

293tat cells = assay: Viability of 293tat cells, Alamar Blue; type: cell-based, human
Experimental: 293tat cells, a cell line stably transfected with the expression plasmids pHIV.AP and pHIV.tat, were plated onto 96-well microtiter plates at 2000 cells per well. The media were changed the next day and CT2576 was added at the indicated concentrations to the fresh media with or without TNF-α (20 ng/ml). 2 μl of medium from each well was used for AP assay 24 hr later. After culture media were withdrawn for AP assay, cytotoxicity was measured for the same cell cultures using an indicator dye, Alamar Blue™, that would change color in response to the reduction potential of cell medium due to cell growth. The left y-axis refers to the absorbance value of the reduced form of Alamar Blue™ at 570 nm with the background absorbance at 600 nm from the oxidized form of Alamar Blue™ subtracted. Each data point represents the mean of triplicate samples with error bar indicating the standard deviation of the mean.
The effect of CT2576 on HIV promoter activity in 293tat cells, with the HIV.AP construct cotransfected with pHIV.tat, is shown in FIG. 15. CT2576 inhibited AP reporter gene expression by 50% with an inhibition constant (IC50) in the range of 10 μM with or without TNF-α induction. The inhibition of AP expression is the result of two events: a decrease in AP expression and a decrease in tat expression and therefore lower tat protein levels for transactivation. […]

[2] = system: PA formation in EB293 cells; assay: PA and lyso (bis) PA species in TNF-stimulated EB293 cells (HPLC peaks D and A5); type: cell-based, human; conditions: CT2576 10 μM, TNF 20 ng/ml
Excerpt: One must first quantitatively and qualitatively separate PAs from the other lipids found in serum by a chemical extraction of lipids and high performance liquid chromatography (HPLC) to separate and detect PAs. Chemical extraction can be accomplished, for example, by the method of Bligh et al. (Canadian J. Biochem. Physiol. 37:911-917, 1959) or that of Folch et al. (J. Biol. Chem. 226:497-509, 1957). Briefly, the method of Bligh et al. involves an organic extraction of lipids from biological tissue homogenates or fluids. One volume of sample and three volumes of methanol:chloroform (2:1) are vigorously shaken for 2 min. One volume of chloroform is added and then shaken vigorously for 30 sec. One volume of water is added and then shaken vigorously for 30 sec. The mixture is filtered and the upper aqueous layer is discarded. The lower organic layer contains a mixture of lipid classes. The method of Folch et al. involves the extraction of lipids from biological tissue homogenates or body fluids. One volume of sample plus 20 volumes of chloroform:methanol (2:1) are vigorously shaken for 2 min. The mixture is filtered and an amount of 0.1 N KCl equal to 20% of the extraction mixture volume is added and the mixture is shaken vigorously for 2 min. The aqueous and organic phases are allowed to separate. The upper aqueous layer is discarded. […]

| Compound | IC50 ([1]; Homo sapiens, 293-EBNA, FIG. 8, read-out: concentration inhibiting AP activity by 50% (CMV assay)) | inhibition of AP expression (CMV promoter) ([1]; in words) | cytotoxic concentration (not cytotoxic at concentrations up to), 293tat cells (293tat cells; Alamar Blue) | cytotoxic effect, 293tat cells (293tat cells; in words) | PA mass (peak D), TNF-stimulated EB293 cells [2] | lyso (bis) PA species (peak A5), TNF-stimulated EB293 cells [2] |
| --- | --- | --- | --- | --- | --- | --- |
| CCCCCCCCNCC(O)CCCCCCCCCN1C(=O)CCN(C)C1=O (stereo not drawn) [CT1829, 3-(11-octylamino-10-hydroxyundecyl)-1-methyldihydrouracil] | 2 to 6 µM | inhibit CMV promoter driven expression | – | – | – | – |
| CCCCCCCCNCC(O)CCCCCCCCCn1c(=O)c2c(ncn2C)n(C)c1=O (stereo not drawn) [CT2576, 1-(11-octylamino-10-hydroxyundecyl)-3,7-dimethylxanthine] | – | – | > 32 µM | minimal cytotoxic effect | reduced PA mass across all time points measured | increased lyso (bis) PA species across all time points |

Reference: US5985926A, “Method for inhibiting intracellular viral replication” (Cell Therapeutics, Inc., priority 1997, dated 1999)
